Patent publication US20090053807A1 (Novo Nordisk A/S, priority 1998, published 2009)
Where two headings read alike, the source gives them in different places. Blank lines part the entries; values can stand above or below the compound they belong to. Residues, ends and D or L forms follow the SMILES beside them. No end group written: not given here.

Experiments:
[1] = biological target: T1, human insulin receptor (HIR) (Homo sapiens, UniProt P06213); assay: Insulin receptor binding, competition with 125I-labeled insulin (radio-receptor assay); details: for Kd: HIR binding affinity of synthetic peptides; for HIR binding affinity: comparison with monomers / homodimers
T1 construct: made in house

[2] = biological target: soluble human insulin mini-receptor (mIR) (Homo sapiens, UniProt P06213, DEL496-730); assay: Fluorescence polarization competition with FITC-RP9, mIR; type: binding; details: target mIR, label FITC-RP9, FP
free fat cells = assay: Adipocyte / free fat cell (FFC) assay, 3H glucose incorporation into lipid; details: for FFC Pot.: agonist or antagonist / FFC Pot.: Table 8; for FFC Pot.: potency
MCF-7 cells [3] = assay: MCF-7 cell proliferation assay, antagonist format (50 nM IGF-1); details: proliferation assays in the presence of IGF-1 using MCF-7 and MiaPaCa cells; Table 23
[4] = biological target: T2, soluble human insulin receptor-immunoglobulin heavy chain chimera (sIR-Fc) (Homo sapiens, UniProt P06213); assay: Fluorescence polarization competition with FITC-RP9, sIR-Fc; type: binding; details: for Bndg Ratio IGF-1R/1R: higher values indicated higher affinity for IR than IGF-1R; for affinity / potency at IR: FP, FITC-RP9, summary of Table 22
T2 construct: replacing the transmembrane domain and the intracellular domain of IR with constant domains from immunoglobulin Fc or λ subunits; made in house; host or cells: human embryonic kidney 293 cells (as described for the Bass construct)

IGF-1R [5] = biological target: T3, IGF-1R (Homo sapiens, UniProt P08069); details: for binding ratio for IGF-1R over IR: TR-FRET at rhIGF-1R versus FP at sIR-Fc, summary of Table 22
IGF-1R [6] = biological target: T3, IGF-1R; assay: TR-FRET, dissociation of biotinylated-20E2 from IGF-1R; type: binding; details: peptides 100 μM, IGF-1 30 μM
Protocol: Best fit non-linear regression analysis of the data, was used to determine dissociation rate constants. Each data point represents a single observation.
Reactions were allowed to reach equilibrium for 6 h at RT.

[7] = biological target: insulin receptor construct transfected into 32D cells (Homo sapiens, UniProt P06213); assay: IR autophosphorylation assay in IR transfected 32D cells (ELISA); details: MBP fusion peptides, FIG. 30
IR = biological target: T4, IR (Homo sapiens, UniProt P06213); assay: Phage ELISA, binding of phage clones to IR (ratio over background); details: ratio of IR divided by ratio of IGF-1R
T4 construct: replacing the transmembrane domain and the intracellular domain of IR with constant domains from immunoglobulin Fc or λ subunits; made in house; host or cells: human embryonic kidney 293 cells (as described for the Bass construct)

IGF-1R [8] = biological target: T3, IGF-1R; assay: Phage ELISA, binding of phage clones to IGF-1R (ratio over background); set-up: included the heterotetrameric (alpha 2-beta 2) extracellular domain of IGF-1R isolated from a mouse myeloma cell line; purchased R&D Systems 391-GR/CF; host or cells: mouse myeloma cell line; details: ratio of IGF-1R divided by ratio of IR
[9] = biological target: His-tagged soluble recombinant human IGF-1R (srhIGF-1R-his) (Homo sapiens, UniProt P08069); assay: ALPHAScreen binding assay, competition with b-hIGF-1; details: Table 29
MCF-7 cells [10] = assay: MCF-7 cell proliferation assay, agonist format; type: cell-based, human
[11] = test system: FDC-P2 cells expressing the IL-3 and human IGF-1R receptors
[12] = test system: FDC-P2 cells expressing the IL-3 and human IGF-1R receptors; assay: IGF-1 proliferation assay in FDC-P2 cells, antagonist format
MiaPaCa cells = assay: MiaPaCa cell proliferation assay, agonist format; type: cell-based, human; details: serum-free conditions
[13] = biological target: recombinant human insulin receptor (Homo sapiens, UniProt P06213); assay: Substrate phosphorylation assay (HIR kinase); type: biochemical; details: for Kinase Pot. (nM): potency, Table 8
Protocol: Subsequently, a 2000-fold dilution of horseradish peroxidase (HRPO) conjugated phosphotyrosine antibody (Transduction Laboratories, Cat. No. E120H) in TBS was added. The plates were incubated for 30 min and washed 3 times with TBS. TMB (3,3′,5,5′-tetramethylbenzidine; Kem-En-Tec, Copenhagen, Denmark) was added. One substrate from Kem-En-Tec was added. After 10^−15 min, the reaction was stopped by the addition of 1% acetic acid. The absorbance, representing the extent of substrate phosphorylation, was measured in a spectrophotometer at a wavelength of 450 nm.

[14] = in the presence of a stimulating concentration of insulin
[15] = standard concentration of insulin

Kd [1]: 2800 nM
Compound: CC[C@@H](C)[C@@H](NC(=O)[C@H](CCC(=O)O)NC(=O)[C@H](CC(=O)O)NC(=O)[C@H](Cc1ccccc1)NC(=O)[C@H](Cc1c[nH]c2ccccc12)NC(=O)[C@H](CCC(=O)O)NC(=O)[C@H](Cc1ccc(O)cc1)NC(=O)[C@H](Cc1ccccc1)NC(=O)[C@H](CCC(=O)O)NC(=O)[C@H](CCCCN)NC(=O)[C@H](CC(N)=O)NC(=O)[C@H](CC(N)=O)NC(=O)[C@@H](N)CCCCN)C(=O)NCC(=O)N[C@H](CCC(N)=O)C(=O)O [Peptide S320] (HELM PEPTIDE1{K.N.N.K.E.F.Y.E.W.F.D.E.[dI].G.[dQ]}$$$$V2.0; N-terminus and C-terminus assumed)

Hill [2]: −0.94
Compound: CC(C)C[C@H](NC(=O)[C@H](CCC(N)=O)NC(=O)[C@H](CCCNC(=N)N)NC(=O)[C@H](CCC(=O)O)NC(=O)[C@H](Cc1ccccc1)NC(=O)[C@H](Cc1c[nH]c2ccccc12)NC(=O)[C@H](CC(=O)O)NC(=O)[C@H](Cc1ccc(O)cc1)NC(=O)[C@H](Cc1ccccc1)NC(=O)[C@H](CO)NC(=O)[C@@H](N)CCC(=O)O)C(=O)NCC(=O)O [Peptide S390]
activity in the FFC assay / at IR (free fat cells): potency similar to full-length RP9 monomer peptides

Kd [1]: 81 nM
Compound: GSLDESFYDWFERQL [Peptide S395]

Kd [1]: 2000 nM
Compound: HDPFYSMMKSLLK [Peptide S120]

Kd [1]: 1800 nM
Compound: SLNFYDALQLLAKK [Peptide S119]

HIR binding affinity [1]: increased HIR binding affinity
Compound: WFGYAWLS-NH2 (C-terminus assumed) [Peptide S317]
activity in the FFC assay / at IR (free fat cells): increased potency in FFC assays
FEC (free fat cells; FFC assay potency, number of + grades agonist potency): 0

More lines, now with the values behind:

Compound: CC(C)C[C@@H]1NC(=O)[C@@H](NC(=O)[C@H](CO)NC(=O)[C@H](Cc2ccc(O)cc2)NC(=O)[C@H](Cc2ccccc2)NC(=O)[C@@H](N)CO)CSSC[C@@H](C(=O)N[C@@H](CCCNC(=N)N)C(=O)N[C@@H](CCCCN)C(=O)N[C@@H](CCCCN)C(=O)O)NC(=O)CNC(=O)[C@H](CC(=O)O)NC(=O)[C@H](Cc2c[nH]c3ccccc23)NC(=O)[C@H](CCC(N)=O)NC(=O)CNC(=O)[C@H](CCCNC(=N)N)NC(=O)[C@H](CO)NC(=O)[C@H](CCCCN)NC(=O)[C@H](CCC(=O)O)NC(=O)[C@H](C)NC(=O)[C@@H]2CCCN2C(=O)CNC(=O)[C@H](CC(N)=O)NC(=O)[C@H](C(C)C)NC(=O)[C@H](CC(C)C)NC(=O)[C@H](CO)NC(=O)[C@H](CCC(=O)O)NC1=O [RP33-IGF with KK]
Activ. (MCF-7 cells [3]): Antag.

Compound: DYKDFYDAIDQLVRGSARAGGTRD [20E2(D118)]
Bndg Ratio IGF-1R/1R [4]: 1.9
IC50 (IGF-1R [5]; read-out: TR-FRET rhIGF-1R IC50, vs. b-20E2, Table 22): 100 nM

Compound: FHENFYDWFVQRVSKK [Peptide H2C]
Hill [2]: −0.89
affinity / potency at IR [4]: slightly less potent
rate of dissociation of b-20E2 (IGF-1R [6]): similar
binding ratio for IGF-1R over IR (IGF-1R [5]): lower binding ratios for IGF-1R over IR
stimulation of autophosphorylation of IR [7]: stimulate autophosphorylation of IR

Compound: FYVQQYWGHENFYDWFDRQVSQSGGAG [H2CA-4-P1-IGFR]
Comparisons IR/IGF-1R (IR): 0.3
Comparisons IGF-1R/IR (IGF-1R [8]): 3.8

Compound: GIISQSCPESFYDWFAGQVSDPWWCW [Peptide G33]
affinity / potency at IR [4]: less potent
IC50 [9]: 600 nM
IGF-1R agonist activity (MCF-7 cells [10]; MCF-7 and MiaPaCa cell proliferation (Tables 27-28)): IGF-1R agonist activity
ED50, agonist activity at IGF-1R ([11]; FDC-P2 cells): ~10000 nM
agonist activity at IGF-1R ([11]; FDC-P2 cells): IGF-1R agonist activity
ED50 Growth ([11]; FDC-P2 cells, agonist format, Table 15): 500 nM
Max Action ([11]; FDC-P2 cells, Table 15): >50%
FDC-P2 Agonist ([11]; Table 30): +
antagonist activity at IGF-1R [12]: no antagonist activity

Compound: GRVDWLQRNANFYDWFVAELG [Peptide S175]
Hill [2]: −1.72
EC50 [11]: 10000 nM
ED50, agonist activity at IGF-1R ([11]; FDC-P2 cells): > 10000 nM
agonist activity at IGF-1R ([11]; FDC-P2 cells): IGF-1R agonist activity

Compound: IGF-1: Insulin-like growth factor 1, from PeproTech; control
ED50, proliferation (MCF-7 cells [10]; MCF-7, serum-free conditions): 5 nM
ED50, proliferation (MiaPaCa cells): 5 nM

Compound: MADYKDDDDKGSLDESFYDWFERQLGKKGGSGGSGGSGGSWLDQEWAWVQCEVYGRGCPSAAA(ETAG)PG [Peptide 538]
HIR binding affinity [1]: substantially higher (several orders of magnitude) affinity
Kinase Pot. (nM) [13]: Inactive
activity in the FFC assay / at IR (free fat cells): specific insulin receptor antagonists
FFC Pot.: agonist or antagonist (free fat cells): N
activity in the FFC assay (free fat cells; [14]): antagonists
FFC Pot. (free fat cells): 10 nM
activity in the FFC assay (free fat cells; [15]): inactive

Compound: MADYKDDDDKGSLDESFYDWFERQLGKKGGSGGSWLDQEWAWVQCEVYGRGCPSAAA(ETAG)PG [Peptide 537]
HIR binding affinity [1]: substantially higher (several orders of magnitude) affinity
Kinase Pot. (nM) [13]: Inactive
activity in the FFC assay / at IR (free fat cells): specific insulin receptor antagonists
FFC Pot.: agonist or antagonist (free fat cells): N
activity in the FFC assay (free fat cells; [14]): antagonists
FFC Pot. (free fat cells): 10 nM
activity in the FFC assay (free fat cells; [15]): inactive

Compound: MADYKDDDDKWLDQEWAWVQCEWGRGCPSGGSGGSGSLDESFYDWFERQLGKKAAA(ETAG)PG [Peptide 539]
HIR binding affinity [1]: substantially higher (several orders of magnitude) affinity
activity in the HIR kinase assay [13]: more active
activity in the FFC assay / at IR (free fat cells): full agonist
FFC Pot. (free fat cells): 10 nM

Compound: PPWGARFYDAIEQLVFDNL [RP4]
affinity / potency at IR [4]: high affinities for IR
Bndg Ratio IGF-1R/1R [4]: 476
IC50 ([4]; vs. FITC-RP9, Table 22, read-out: FP sIR-Fc IC50): 17 nM
IC50 (IGF-1R [5]): 8100 nM
binding ratio for IGF-1R over IR (IGF-1R [5]): high binding ratios for IGF-1R over IR
